{
  "source": "patent US20230228744A1",
  "about": "“DRY EYE DISEASE BIOMARKERS AND THEIR USE FOR TREATMENT” (Aldeyra Therapeutics, Inc., priority 2020, published 2023)",
  "key": {"[1]": {"system": "malondialdehyde (MDA) adducts in tears", "assay": "Phase 2a clinical study, MDA adduct competitive ELISA in tears", "format": "in vivo, human", "conditions": "28 days (4 weeks) of treatment, pooled reproxalap groups", "source_text": "The study was to assess levels of malondialdehyde (MDA) adducts in tears collected from subjects with dry eye disease enrolled in a Phase 2a, randomized, double-masked, clinical study to assess the safety, tolerability, and pharmacodynamic activity of ADX-102 ophthalmic solution in subjects with dry eye diseases, also referred to herein as dry eye syndrome (DES).\nTears were collected during Visit 1, prior to treatment, and during Visit 3, following four weeks of treatment. Treatment groups consisted of ADX-102 Ophthalmic Solution (0.5%), ADX-102 Ophthalmic Solution (0.1%), and ADX-102 Ophthalmic Lipid Solution (0.5%). […]\nThe assay is a competitive ELISA. […] The plate is read in a microplate reader at 450 nm. The assay OD reading decreases with increasing MDA adducts in the samples, as the adsorbed MDA competes for binding to the MDA antibody with MDA adducts in the test sample. […]\nDES Study Samples. Based on the results of the pilot assay, a 1:60 dilution was determined to maximize the likelihood of the OD values falling within the linear portion of the standard curve, and thus provide the most accurate results. All tear samples from subjects (0.5% ADX-102 Ophthalmic Solution) and (0.1% ADX-102 Ophthalmic Solution) were analyzed, but results from some tear samples were excluded from the data analysis due to contamination with ocular staining dye in the Visit 3 samples. […]"}, "[2]": {"system": "RASP (reactive aldehyde species)", "assay": "In vitro RASP elimination by reproxalap", "format": "biochemical", "conditions": "reproxalap at equimolar concentrations", "source_text": "Regarding the use of tear RASP levels as a clinical endpoint, it is important to note that this is (to date) unprecedented. The FDA has not agreed to the use of RASP before as a clinical endpoint. In this regard, we have reached agreement with the US Food and Drug Administration (FDA) for the use of RASP (reactive aldehyde species) as an objective sign for the treatment of dry eye disease. RASP are pre-cytokine pro-inflammatory mediators that are elevated in the tears of patients with dry eye disease, and correlate with dry eye disease symptoms and signs. […] In in vitro studies, RASP were eliminated within 60 to 90 minutes when exposed to reproxalap at equimolar concentrations. […] The use of RASP as a trial endpoint represents the first novel objective sign for the treatment in dry eye disease in over a decade."}},
  "note": "“Also recorded” adds a separate entry of the source.",
  "data": [
    {"smiles": "CC(C)(O)c1nc2ccc(Cl)cc2cc1N", "note": "[reproxalap, Reproxalap]", "values": [
      {"measurement": "tear MDA adduct / RASP levels after treatment relative to baseline (pooled groups)", "setting": "[1]", "result": "reduction in tear RASP levels; also recorded: statistically lower"},
      {"measurement": "time to elimination of RASP", "setting": "[2]", "result": "60 to 90", "unit": "min"}
    ]}
  ]
}
